Reference: patent US6506766B1 (Abbott Laboratories, priority 1998, dated 2003)
Where two headings read alike, the source gives them in different places.

Experiments:
[1] = biological target: T1, human glucocorticoid receptor-α [GRX] isoform (Homo sapiens, UniProt P04150); assay: Radioligand binding with human glucocorticoid receptor cytosol ([3H]-dexamethasone competition)
T1 construct: host or cells: insect SF21 cells (baculovirus)
T1 sequence (P04150 1-777): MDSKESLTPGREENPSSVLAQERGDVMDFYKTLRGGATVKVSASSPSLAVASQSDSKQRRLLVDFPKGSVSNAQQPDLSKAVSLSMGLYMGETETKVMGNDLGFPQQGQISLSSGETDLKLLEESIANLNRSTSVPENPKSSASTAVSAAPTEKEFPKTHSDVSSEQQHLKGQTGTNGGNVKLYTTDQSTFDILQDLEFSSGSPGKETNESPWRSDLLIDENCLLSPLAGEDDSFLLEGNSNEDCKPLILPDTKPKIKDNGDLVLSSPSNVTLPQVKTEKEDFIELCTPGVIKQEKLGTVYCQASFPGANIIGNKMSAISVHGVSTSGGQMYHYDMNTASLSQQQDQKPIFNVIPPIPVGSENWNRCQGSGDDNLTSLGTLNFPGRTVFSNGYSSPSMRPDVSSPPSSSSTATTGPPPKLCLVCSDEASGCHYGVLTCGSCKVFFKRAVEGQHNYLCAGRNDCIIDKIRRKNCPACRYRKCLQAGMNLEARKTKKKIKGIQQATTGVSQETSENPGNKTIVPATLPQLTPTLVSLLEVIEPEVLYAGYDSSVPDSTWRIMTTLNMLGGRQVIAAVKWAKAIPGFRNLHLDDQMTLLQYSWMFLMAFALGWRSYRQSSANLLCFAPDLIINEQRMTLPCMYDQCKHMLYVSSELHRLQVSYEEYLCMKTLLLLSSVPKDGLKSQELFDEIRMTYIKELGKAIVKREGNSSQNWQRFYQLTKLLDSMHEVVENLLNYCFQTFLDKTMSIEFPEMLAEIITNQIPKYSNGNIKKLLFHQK

[2] = biological target: T2, human progesterone receptor-A [PRA] isoform (Homo sapiens, UniProt P06401); assay: Radioligand binding with human progesterone receptor cytosol ([3H]-progesterone competition)
T2 construct: host or cells: insect SF21 cells (baculovirus)
T2 sequence (P06401 1-769 isoform P06401-2): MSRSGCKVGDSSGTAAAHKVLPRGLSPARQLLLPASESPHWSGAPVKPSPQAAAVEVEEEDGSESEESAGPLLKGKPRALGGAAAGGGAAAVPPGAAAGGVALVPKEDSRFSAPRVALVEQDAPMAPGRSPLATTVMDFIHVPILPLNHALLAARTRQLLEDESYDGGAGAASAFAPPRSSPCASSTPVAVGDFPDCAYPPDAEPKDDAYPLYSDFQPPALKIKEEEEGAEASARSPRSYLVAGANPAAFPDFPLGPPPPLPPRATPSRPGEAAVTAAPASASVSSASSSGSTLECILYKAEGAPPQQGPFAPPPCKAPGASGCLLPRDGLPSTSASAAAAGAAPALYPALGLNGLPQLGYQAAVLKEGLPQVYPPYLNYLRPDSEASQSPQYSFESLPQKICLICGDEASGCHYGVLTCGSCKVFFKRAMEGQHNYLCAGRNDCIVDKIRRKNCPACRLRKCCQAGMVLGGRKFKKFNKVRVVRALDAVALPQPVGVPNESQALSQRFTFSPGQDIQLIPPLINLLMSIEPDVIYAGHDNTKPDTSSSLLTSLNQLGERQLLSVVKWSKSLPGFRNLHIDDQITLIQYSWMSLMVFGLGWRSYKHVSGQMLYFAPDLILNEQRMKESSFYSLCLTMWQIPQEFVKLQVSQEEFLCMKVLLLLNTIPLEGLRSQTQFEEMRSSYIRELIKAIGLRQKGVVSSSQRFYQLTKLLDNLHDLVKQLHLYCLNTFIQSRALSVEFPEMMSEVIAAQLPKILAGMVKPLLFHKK

[3] = GRX cytosol expressed in insect SF21 cells, [3H]-Dex ~0.9 nM, 4° C. overnight, Ki by Cheng-Prusoff, KL ~[…], read-out: Ki (nM) GR
[4] = PRA cytosol expressed in insect SF21 cells, [3H]Prog ~0.8 nM, 4° C. overnight, Ki by Cheng-Prusoff, KL ~4.5 nM, read-out: Ki (nM) PR

## CCC1Oc2ccc(O)c(OC)c2-c2ccc3c(c21)C(C)=CC(C)(C)N3 (centres unmarked) [Example 376, 9-Hydroxy-10-methoxy-5-ethyl-2,2,4-trimethyl-2,5-dihydro-1H-[1]benzopyrano[3,4-f]quinoline]
[1]; [3]
  Ki: 0.78 nM
[2]; [4]
  Ki: 156 nM

## C=CCC1Oc2ccc(OC(=O)CCC(=O)N(CC)CC)c(OC)c2-c2ccc3c(c21)C(C)=CC(C)(C)N3 (centres unmarked) [Example 378, 2,5-Dihydro-9-(4-N,N-diethylamino-4-oxo-butanoyloxy)-10-methoxy-2,2,4-trimethyl-5-(2-propenyl)-1H-[1]benzopyrano[3,4-f]quinoline]
[1]; [3]
  Ki: 1.1 nM
[2]; [4]
  Ki: 440 nM

## C=CCC1Oc2ccc(OC(=O)CCC(=O)N3CCCCC3)c(OC)c2-c2ccc3c(c21)C(C)=CC(C)(C)N3 (centres unmarked) [Example 379, 2,5-Dihydro-9-(4-N-piperidino-4-oxo-butanoyloxy)-10-methoxy-2,2,4-trimethyl-5-(2-propenyl)-1H-[1]benzopyrano[3,4-f]quinoline]
[1]; [3]
  Ki: 1.4 nM
[2]; [4]
  Ki: 175 nM

## C=CCC1Oc2ccc(OC(=O)CCC(=O)N3CCOCC3)c(OC)c2-c2ccc3c(c21)C(C)=CC(C)(C)N3 (centres unmarked) [Example 380, 2,5-Dihydro-9-(4-N-morpholino-4-oxo-butanoyloxy)-10-methoxy-2,2,4-trimethyl-5-(2-propenyl)-1H-[1]benzopyrano[3,4-f]quinoline]
[1]; [3]
  Ki: 1.2 nM
[2]; [4]
  Ki: 204 nM

## COc1c(OC(=O)CCC(=O)N(C)C)ccc2c1-c1ccc3c(c1C(c1cc(F)c(F)c(F)c1)O2)C(C)=CC(C)(C)N3 (centres unmarked) [Example 381, 2,5-Dihydro-9-(4-N,N-dimethylamino-4-oxo-butanoyloxy)-10-methoxy-2,2,4-trimethyl-5-(3,4,5-trifluorophenyl)-1H-[1]benzopyrano[3,4-f]quinoline]
[1]; [3]
  Ki: 7.1 nM
[2]; [4]
  Ki: 9820 nM

## CC1=CC(C)(C)Nc2ccc3c(c21)C(c1cccs1)Oc1ccc(O)c(Cl)c1-3 (centres unmarked) [Example 383, 2,5-Dihydro-9-hydroxy-10-chloro-2,2,4-trimethyl-5-(2-thienyl)-1H-[1]benzopyrano[3,4-f]quinoline]
[1]; [3]
  Ki: 4.8 nM
[2]; [4]
  Ki: 46 nM

## COc1c(O)ccc2c1-c1ccc3c(c1C(C1CCCC1)O2)C(C)=CC(C)(C)N3 (centres unmarked) [Example 384, 2,5-Dihydro-9-hydroxy-10-methoxy-2,2,4-trimethyl-5-cyclopentyl-1H-[1]benzopyrano[3,4-f]quinoline]
[1]; [3]
  Ki: 0.67 nM
[2]; [4]
  Ki: 197 nM

## C=CCC1Oc2ccc(CO)c(OC)c2-c2ccc3c(c21)C(C)=CC(C)(C)N3 (centres unmarked) [Example 386, 2,5-Dihydro-9-hydroxymethyl-10-methoxy-2,2,4-trimethyl-5-allyl-1H-[1]benzopyrano[3,4-f]quinoline]
[1]; [3]
  Ki: 6.5 nM
[2]; [4]
  Ki: 105 nM

## C=CCCCC1Oc2ccc(O)c(OC)c2-c2ccc3c(c21)C(C)=CC(C)(C)N3 (centres unmarked) [Example 387]
[1]; [3]
  Ki: 0.65 nM
[2]; [4]
  Ki: 169 nM

## C=CCC1Oc2ccc(C(=O)OC)c(OC)c2-c2ccc3c(c21)C(C)=CC(C)(C)N3 (centres unmarked) [Example 388, 2,5-Dihydro-9-methylcarboxylate-10-methoxy-2,2,4-trimethyl-5-allyl-1H-[1]benzopyrano[3,4-f]quinoline]
[1]; [3]
  Ki: 2.8 nM
[2]; [4]
  Ki: 199 nM

## C=C=CC1Oc2ccc(O)c(OC)c2-c2ccc3c(c21)C(C)=CC(C)(C)N3 (centres unmarked) [Example 389, 2,5-Dihydro-9-hydroxy-10-methoxy-2,2,4-trimethyl-5-allenyl-1H-[1]benzopyrano[3,4-f]quinoline]
[1]; [3]
  Ki: 0.58 nM
[2]; [4]
  Ki: 27.5 nM

## COc1cccc2c1-c1ccc3c(c1[C@H]([C@H]1C=CCCC1)O2)C(C)=CC(C)(C)N3 [Example 392, (−)(5S,3′R)2,5-Dihydro-10-methoxy-2,2,4-trimethyl-5-(cyclohexen-3-yl)-1H-[1]benzopyrano[3,4-f]quinoline]
[1]; Ki (nM) GR, GRX cytosol expressed in insect SF21 cells, [3H]-Dex ~0.9 nM, 4° C. overnight, Ki by Cheng-Prusoff, KL ~[…]
  Ki: 1.2 nM
[2]; [4]
  Ki: 487 nM

## CC/C=C\CC1Oc2ccc(O)c(OC)c2-c2ccc3c(c21)C(C)=CC(C)(C)N3 (centres unmarked) [Example 394]
[1]; [3]
  Ki: 0.89 nM
[2]; [4]
  Ki: 109 nM

## COc1c(O)ccc2c1-c1ccc3c(c1C(c1cccc(OC(C)=O)c1)O2)C(C)=CC(C)(C)N3 (centres unmarked) [Example 395, 2,5-Dihydro-9-hydroxy-10-methoxy-2,2,4-trimethyl-5-(3-acetoxyphenyl)-1H-[1]benzopyrano[3,4-f]quinoline]
[1]; [3]
  Ki: 2.1 nM
[2]; [4]
  Ki: 1210 nM

## CSCOc1cccc(C2Oc3cccc(OC(F)F)c3-c3ccc4c(c32)C(C)=CC(C)(C)N4)c1 (centres unmarked) [Example 396]
[1]; [3]
  Ki: 6.3 nM
[2]; [4]
  Ki: 2120 nM

## COc1c(O)ccc2c1-c1ccc3c(c1C(c1cccc(O)c1)O2)C(C)=CC(C)(C)N3 (centres unmarked) [Example 398, 2,5-Dihydro-9-hydroxy-10-methoxy-2,2,4-trimethyl-5-(3-hydroxyphenyl)-1H-[1]benzopyrano[3,4-f]quinoline]
[1]; [3]
  Ki: 6.7 nM
[2]; [4]
  Ki: 1080 nM

## COc1c(O)ccc2c1-c1ccc3c(c1C(c1cccc(OCSC)c1)O2)C(C)=CC(C)(C)N3 (centres unmarked) [Example 400, 2,5-Dihydro-9-hydroxy-10-methoxy-2,2,4-trimethyl-5-(3-(methylthiomethoxy)phenyl)-1H-[1]benzopyrano[3,4-f]quinoline]
[1]; [3]
  Ki: 3.5 nM
[2]; [4]
  Ki: 5960 nM

## CC1=CC(C)(C)Nc2ccc3c(c21)C(=Cc1ccccc1)Oc1ccc(O)c(Cl)c1-3 [Example 401, 9-Hydroxy-10-chloro-5-(phenylmethylene)-2,2,4-trlimethyl-1H-2,5-dihydro-[1]benzopyrano[3,4-f]quinoline]
[1]; [3]
  Ki: 134 nM
[2]; [4]
  Ki: 6080 nM

## COc1c(O)ccc2c1-c1ccc3c(c1C(c1ccccc1OC(=O)N(C)C)O2)C(C)=CC(C)(C)N3 (centres unmarked) [Example 402]
[1]; Ki (nM) GR
  Ki: 3.3 nM
[2]; Ki (nM) PR
  Ki: 10100 nM

## COc1c(OC(=O)N(C)C)ccc2c1-c1ccc3c(c1C(c1ccccc1OC(=O)N(C)C)O2)C(C)=CC(C)(C)N3 (centres unmarked) [Example 403, 2,5-Dihydro-9-N,N-dimethylcarbamoyloxy-10-methoxy-2,2,4-trimethyl-5-([2-N,N-dimethylcarbamoyloxy]phenyl)-1H-[1]benzopyrano[3,4-f]quinoline]
[1]; Ki (nM) GR
  Ki: 131 nM
[2]; Ki (nM) PR
  Ki: ≥ 10000 nM

## CCC1Oc2ccc(O)c(Cl)c2-c2ccc3c(c21)C(C)=CC(C)(C)N3 (centres unmarked) [Example 404, 2,5-Dihydro-9-hydroxy-10-chloro-2,2,4-trimethyl-5-ethyl-1H-[1]benzopyrano[3,4-f]quinoline]
[1]; [3]
  Ki: 1.3 nM
[2]; [4]
  Ki: 49.7 nM

## CC1=CC(C)(C)Nc2ccc3c(c21)C(C(C)C)Oc1ccc(O)c(Cl)c1-3 (centres unmarked) [Example 405, 2,5-Dihydro-9-hydroxy-10-chloro-2,2,4-trimethyl-5-isopropyl-1H-[1]benzopyrano[3,4-f]quinoline]
[1]; [3]
  Ki: 1.1 nM
[2]; [4]
  Ki: 75.1 nM

## COc1c(O)ccc2c1-c1ccc3c(c1C(=Cc1ccccc1)O2)C(C)=CC(C)(C)N3 [Example 406, 9-Hydroxy-10-methoxy-5-(phenylmethylene)-2,2,4-trimethyl-1H-2,5-dihydro-[1]benzopyrano[3,4-f]quinoline]
[1]; [3]
  Ki: 2.3 nM
[2]; [4]
  Ki: 97.9 nM

## CCCCC1Oc2ccc(O)c(Cl)c2-c2ccc3c(c21)C(C)=CC(C)(C)N3 (centres unmarked) [Example 407, 2,5-Dihydro-9-hydroxy-10-chloro-2,2,4-trimethyl-5-butyl-1H-[1]benzopyrano[3,4-f]quinoline]
[1]; [3]
  Ki: 1.8 nM
[2]; [4]
  Ki: 16.4 nM

## COc1c(O)ccc2c1-c1ccc3c(c1C(c1nccs1)O2)C(C)=CC(C)(C)N3 (centres unmarked) [Example 408, 2,5-Dihydro-9-hydroxy-10-methoxy-2,2,4-trimethyl-5-(1-thiazol-2-yl)-1H-[1]benzopyrano[3,4-f]quinoline]
[1]; [3]
  Ki: 112 nM
[2]; [4]
  Ki: 14100 nM
